Test results as given in US5025036A, “Catechol carboxylic acids” (Hoffmann-La Roche Inc., priority 1989, dated 1991).

How the values were obtained:
ear edema = test: Mouse Ear Edema Test (In Vivo), arachidonic acid; set-up: species or system CD-1 male mice; conditions: topical, 1 h, at 1 mg topically
From the text: Invest. Dermatol. 80:48 (1983) and Hames, Opas and Bonney, "Arachidonic Acid Metabolites in Mouse Ear Edema" Advances in Inflammation Research, 11:57 (1986). […] CD-1 male mice weighing 15 to 25 g were employed, and they were designated as follows: (1) Control Group, in which no arachidonic acid or test compound was to be applied, (2) Arachidonic Acid-Treated Group, in which no test compound was to be applied, and (3) Treated Group, in which the test compound was to be applied first, followed by the application of arachidonic acid. In the case of the Group (3) animals, the test compound, dissolved in acetone, was applied to the dorsal surface of the right ear of the mouse with a 25-microliter pipettor, with the dose of the test compound being varied. After 0.5 hours in some cases and 4 hours in others, the arachidonic acid was topically applied in the same manner as above to the pretreated ear areas. In each case of arachidonic acid application, an amount of 0.5 mg dissolved in 25 microliters of acetone was used. After 1 hour, the mice were sacrificed by carbon dioxide inhalation. A 6 mm-diameter standard biopsy punch was used to obtain a uniform tissue sample from the ear of each mouse so treated, and the tissue samples were weighed to the nearest 0.1 mg. The percent inhibition of ear edema formation was calculated as follows: [formula]

[1] = Rat In Vivo Model of Myocardial Ischemia (free radical generator infusion); set-up: species or system male spontaneously hypertensive rats; conditions: for Rat Ischemia Model % Infarction: percent of left ventricle infarcted of the animals with an infarct
Protocol: In this preparation a free radical generating (FRG) system consisting of purine (2.3 mM), xanthine oxidase (0.02 U/ml) and iron loaded transferring (0.6 μM) complex is infused into the carotid artery near the ostium of the coronary artery in spontaneously hypertensive rats. Blood is withdrawn before and 24 hours after the FRG challenge for measuring the isoenzymes of lactic acid dehydrogenase (LDH1 :LDH2). An increase in LDH1 :LDH2 ratio reflects cell damage to the myocardium. The electrocardiogram is also taken before and 24 hours after the FRG infusion. At the end of the experiment the heart is removed, sliced in a breadloaf fashion, and stained with triphenyltetrazolium chloride to determine infarct size. A drug or vehicle is administered intravenously 10-30 minutes before the FRG challenge. A drug is considered active if there is no elevation of the LDH1 :LDH2 ratio, no ECG abnormalities and no histologic evidence of an infarction.
Male spontaneously hypertensive rats (280-320 g) from Taconic Farms, were lightly anesthetized with sodium pentobarbital (30-50 mg/kg, i.p.). […] A catheter of PE 50 tubing was inserted into the right common carotid artery to a position proximal to the ostia of the coronary arteries and used to sample blood and infuse the free radical generator (FRG) system. A second catheter of PE 10 tubing was inserted into the left jugular vein to administer drugs. The infusion system for the FRG consisted of a double syringe infusion pump, Sage Model 351, with one syringe containing xanthine oxidase (0.01 units/ml) in a HEPES (0.05M) buffer and the other syringe containing purine (2.3 mM) plus Fe^3+ loaded transferring (0.06 μM) in a HEPES (0.05M) buffer. The FRG infused separately mixes simultaneously near the ostia of the coronary arteries. This infusion was delivered at a rate of 0.03 ml/minute for a total infusion time of 10 minutes. The drugs were infused over a one minute period in a 0.9% saline vehicle.
Standard Lead II ECG was monitored continuously on a Hewlett-Packard 7758A recorder prior to treatment, throughout the FRG infusion and 10 minutes post infusion. Catheters were removed and animals were allowed to recover and fed standard rat chow and water ad libitum. 24 hours following the FRG infusion, animals were reanesthetized with sodium pentobarbital (30-50 mg/kg, i.p.) and an ECG was obtained. Blood samples were taken prior to and after the FRG infusion and at the conclusion of the experiment. These samples were centrifuged and assayed for total lactate dehydrogenase (LDH) and lactate dehydrogenase isoenzymes (LDH1 :LDH2), using electrophoresis.
The animals were sacrificed, the hearts rapidly excised, and washed free of blood and sectioned. The left ventricle was weighed and stored in a Revco® freezer at -70° C. The left ventricle was sliced into 2 mm-thick rings, incubated in a 1% triphenyltetrazolium chloride solution for 20 minutes, and then fixed in a 10% formalin solution. Infarcted areas were measured and quantitated as a percentage of the total left ventricular volume.

Compound | inhibition in vivo at 1 mg (ear edema) [%] | Rat Ischemia Model Infarcts/Total ([1]; 5 mg/kg iv) | Rat Ischemia Model % Infarction ([1]; 5 mg/kg iv) [%] | Rat Ischemia Model Infarcts/Total ([1]; 10 mg/kg iv) | Rat Ischemia Model % Infarction ([1]; 10 mg/kg iv) [%]
CCCc1c(OCCCCCCc2ccc(O)c(O)c2)ccc(C(=O)O)c1O [4-[6-(3,4-dihydroxyphenyl)hexyloxy]-2-hydroxy-3-propylbenzoic acid] | 21 | 1/5 | 11 | – | –
CCCc1c(OCCCCCCc2ccc(C(C)C)c(O)c2O)ccc(C(=O)O)c1O [4-[6-[2,3-dihydroxy-4-(1-methylethyl)phenyl]hexyloxy]-2-hydroxy-3-propylbenzoic acid] | 45 | – | – | 1/5 | 5
CCCc1c(OCCCCc2cccc(O)c2O)ccc(C(C)=O)c1O [1-[2-Hydroxy-4-[4-(2,3-dihydroxyphenyl)butoxy]-3-propylphenyl]ethanone] | – | – | – | 1/5 | 12
CCCc1c(OCCCCCCCCCCc2cccc(O)c2O)ccc(C(=O)O)c1O [4-[10-(2,3-dihydroxyphenyl)decyloxy]-2-hydroxy-3-propylbenzoic acid] | 49 | – | – | 3/3 | 13
CCCc1c(OCCCCCc2cccc(O)c2O)ccc(C(=O)O)c1O [4-[5-(2,3-Dihydroxyphenyl)pentyloxy]-2-hydroxy-3-propylbenzoic acid] | 0 | – | – | 4/5 | 15
CCCc1c(OCCCCCCc2ccc(C(C)C)c(O)c2O)ccc(C(C)=O)c1O [1-[2-hydroxy-4 [6-[2,3 dihydroxy-4-(1-methylethyl)phenyl]hexyloxy]-3 propylphenyl]ethanone] | – | – | – | 2/5 | 11
O=C(O)c1ccc(OCCCCCCc2cccc(O)c2O)cc1O [4-[6-(2,3-Dihydroxyphenyl)hexyloxy]-2-hydroxybenzoic acid] | 50 | – | – | 3/5 | 10
CCCc1c(O)c(C(=O)O)cc(Cl)c1OCCCCCCc1cccc(O)c1O [5-Chloro-2-hydroxy-4-[6-(2,3-dihydroxyphenyl]hexyloxy]-3-propylbenzoic acid] | 51 | – | – | – | –
CCCc1c(OCCCCCCc2cccc(O)c2O)ccc(C(=O)O)c1O [4-[6-(2,3-Dihydroxyphenyl)hexyloxy]-2-hydroxy-3-propylbenzoic acid] | 46 | – | – | 4/5 | 8
CCCc1c(OCCCCCCc2cccc(O)c2O)ccc(C(C)=O)c1O [1-[2-hydroxy-4-[6-(2,3-dihydroxyphenyl)hexyloxy]-3-propylphenyl]ethanone] | 21 | – | – | 4/4 | 24
CCCc1c(OCCCc2ccc(O)c(O)c2)ccc(C(=O)O)c1O [4-[3-(3,4-Dihydroxyphenyl)propoxy]-2-hydroxy-3-propylbenzoic acid] | 32 | – | – | – | –
CCCc1c(OCCCCCCCc2cccc(O)c2O)ccc(C(=O)O)c1O [4-[7-(2,3-dihydroxyphenyl)heptyloxy]-2-hydroxy-3-propylbenzoic acid] | 57 | – | – | 3/5 | 18
CCCc1c(OCCCCCCCCc2cccc(O)c2O)ccc(C(=O)O)c1O [4-[8-(2,3-dihydroxyphenyl)octyloxy]-2-hydroxy-3-propylbenzoic acid] | 78 | – | – | 1/5 | 8
CCCc1c(OCCCCCCc2cccc(O)c2O)ccc(C(=O)OCC)c1O [4-[6-(2,3-Dihydroxyphenyl)hexyloxy]-2-hydroxy-3-propylbenzoic acid ethyl ester] | 64 | – | – | – | –
CCCc1c(OCCCCc2cccc(O)c2O)ccc(C(=O)O)c1O [4-[4-(2,3-dihydroxyphenyl)butoxy]-2-hydroxy-3-propylbenzoic acid] | 17 | – | – | 2/5 | 8
O=C(O)c1ccc(OCCCCCCc2cccc(O)c2O)cc1 [4-[6-(2,3-Dihydroxyphenyl)hexyloxy]benzoic acid] | 48 | – | – | 2/5 | 19
